The record followed here is patent publication US4342780A, “Method of depleting endogenous monoamines” (Merrell-Toraude et Cie, priority 1981, dated 1982).

The target in data set [1] is T1, AADC (Sus scrofa, UniProt P80041).
T1 sequence (P80041 1-486): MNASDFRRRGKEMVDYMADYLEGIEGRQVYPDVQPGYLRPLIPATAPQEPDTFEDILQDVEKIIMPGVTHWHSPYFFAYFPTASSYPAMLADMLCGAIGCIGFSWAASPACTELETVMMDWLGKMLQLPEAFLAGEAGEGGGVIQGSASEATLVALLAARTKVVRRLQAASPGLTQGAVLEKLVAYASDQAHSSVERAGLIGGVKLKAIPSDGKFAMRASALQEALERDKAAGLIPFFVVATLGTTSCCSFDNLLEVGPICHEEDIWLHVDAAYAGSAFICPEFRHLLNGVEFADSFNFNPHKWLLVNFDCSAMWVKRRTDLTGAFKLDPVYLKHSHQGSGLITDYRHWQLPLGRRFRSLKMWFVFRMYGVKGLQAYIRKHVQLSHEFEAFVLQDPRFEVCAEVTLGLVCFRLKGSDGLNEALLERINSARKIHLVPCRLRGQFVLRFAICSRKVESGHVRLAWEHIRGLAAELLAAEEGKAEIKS
Briefly: In vitro AADC inhibition: time of 90% inactivation (14CO2 trapping, DL-[1-14C]-dopa substrate). Format: biochemical, hog. As to conditions: CONC. 100 μM; for TIME OF 90% INACTIVATION: pH 7.4, 37° C.; for RATING: relative activity. The arrangement: key to RATING: ++++: The relative activities of the compounds are rated by the given number of "plus" signs; +++: The relative activities of the compounds are rated by the given number of "plus" signs; 0-+: The relative activities of the compounds are rated by the given number of "plus" signs. As to the method:
AADC can be purified from hog kidney by the general method of J. Christenson et al. Archs. Biochem. Biophys., 141, 356 (1970) and G. Lancaster et al., Can. J. Biochem., 50, 791 (1972), and the specific activity of the enzyme is determined by the ^14 CO2 trapping method using DL-[1-^14 C]-dopa as the substrate (see Christenson et al.). One unit of activity is defined as the total amount of enzyme which produces 1 n mol of CO2 per minute, with DL-[1-^14 C]-dopa as substrate.
To 100 μl of 50 mM-phosphate buffer pH 7.4 containing 100 mM-mercapto-ethanol are added 5 μl of an aqueous solution containing the test compound at the desired concentration and 50 μl of an aqueous solution containing 2 units of AADC. The mixture is incubated at 37° C. and 20 μl aliquots are removed at various times. The AADC activity remaining in each aliquot is measured by the CO2 trapping method of Christenson.
The relative activities of the compounds are rated by the given number of "plus" signs.

The subject of data set [2] is AADC. Briefly: Ex vivo AADC activity in organs of mice after repeated i.p. doses (Table II). Also noted: species or system mice (Swiss Albino). To be noted: three days, 12 h after 6th dose, vs control. As to the method: (§1) The test animals (e.g. mice or rats) are given the test compound in a suitable vehicle, either orally or by injection, each day over the period of time desired. The animals are kept on a constant time cycle, and body weights are measured daily. The animals are sacrificed by decapitation 12 to 24 hours after receiving the last dose of the test compound. Control animals receive the vehicle alone.
(§2) Immediately after death, the organs (brain, heart, and kidney) are removed and homogenized either in 50 ml phosphate buffer pH 6.8 for AADC determination or in ice-cold 0.4 M HClO4 containing 0.05% (w/v) EDTA and 0.1% (w/v) sodium bisulfite for catecholamine determination. AADC activity is determined by the ^14 CO2 trapping method of J. Christenson, supra (see Example 14) using DL-[1-^14 C]-dopa as the substrate. Catecholamines are determined by centrifuging the homogenate, adding the supernatant to alumina buffered to pH 8.0-8.4 to adsorb the catecholamines, re-extracting the catecholamines from the alumina with 0.2 M HClO4 and determining the catecholamines in the extracts using known procedures, such as by reversed-phase ion-pair HPLC with electrochemical detection.
(§3) Table II, shown below, sets forth the results obtained by testing particular compounds of Formula I in the above-described procedure in mice (Swiss Albino) after i.p. administration of the compound twice daily for three days: […]

The test system of data set [3] is catecholamine content (norepinephrine, dopamine). The data set can be described thus: Catecholamine content in organs of mice after repeated i.p. doses (Table II). Format: in vivo, mice (Swiss Albino). To be noted: three days, 12 h after 6th dose, vs control. As to the method: as §1, §2, §3
Data set [4] can be described thus: Deaths in mice after repeated i.p. doses (Table II footnotes). It counts as in vivo, mice (Swiss Albino). To be noted: 100 mg/kg i.p. twice daily, three days; number dead of animals. As to the method:
as §1, §3

Data set [5] deals with AADC. The data set can be described thus: Ex vivo AADC activity in brain of rats after repeated i.p. doses (Table II, footnote c). As to conditions: 100 mg/kg i.p. twice daily, three days, 12 h after 6th dose, vs control. On the procedure:
as §1, §2, §3

In data set [6] the test system is catecholamine content (norepinephrine, dopamine). The data set can be described thus: Catecholamine content in organs of rats after repeated i.p. doses (Table II, footnote c). It counts as in vivo. To be noted: 100 mg/kg i.p. twice daily, three days, 12 h after 6th dose, vs control. On the procedure: as §1, §2, §3
Data set [7] deals with endogenous catecholamine and 5-HT levels. The data set can be described thus: Effect on endogenous catecholamine and 5-HT levels in brain and heart (general statement). It counts as in vivo.
The mark [8] stands for this setting: 10 mg/kg i.p. twice daily, * not significant.
Setting [9] is: 10 mg/kg i.p. twice daily, * not significant (-25*, -7*).
Where [10] appears, read: 10 mg/kg i.p. twice daily, * not significant (-25*, -9*).
Setting [11] is: 100 mg/kg i.p. twice daily, * not significant (-35*).

As for `Cc1cccc(CC(N)(CF)C(=O)O)c1O` (stereo not drawn) [2-OH3-methyl phenyl, 2-Amino-2-fluoromethyl-3-(2-hydroxy-3-methylphenyl)propionic acid], the “TIME OF 90% INACTIVATION” value in data set [1] came out at 1 min. Further, the RATING entry in data set [1] was “+++”. For the same molecule, the results for the “% CHANGE AADC Brain” value in data set [2] (10 mg/kg i.p. twice daily) and in data set [2] (100 mg/kg i.p. twice daily) were -52% and -94%, respectively. Moreover, the “% CHANGE AADC Kidney” value in data set [2] (10 mg/kg i.p. twice daily) is on record as -84%; in data set [2] (100 mg/kg i.p. twice daily), -98%. The “% CHANGE NOREPINEPHRINE Brain” value in data set [3] (setting [8]) was -27%; in data set [3] (100 mg/kg i.p. twice daily), -47%. Further, the “% CHANGE NOREPINEPHRINE Heart” value was -41% in data set [3] (setting [9]) and -68% in data set [3] (100 mg/kg i.p. twice daily). The “% CHANGE DOPAMINE Brain” value in data set [3] (setting [10]) is given as -20%; in data set [3] (setting [11]) it was -24%. The dead in data set [4] is recorded as 1/5.

Take `Cc1ccc(CC(N)(CF)C(=O)O)c(O)c1` (stereo not drawn) [2-OH4-methyl phenyl, 2-amino-2-fluoromethyl-3-(2-hydroxy-4-methylphenyl)propionic acid]: the “TIME OF 90% INACTIVATION” value in data set [1] is on record as 1 min. In data set [1], the RATING result is recorded as “+++”. In addition, the “% CHANGE AADC Brain” value is reported as -39% in data set [2] (10 mg/kg i.p. twice daily) and -99% in data set [2] (100 mg/kg i.p. twice daily). Moreover, the “% CHANGE AADC Kidney” value is reported as -70% in data set [2] (10 mg/kg i.p. twice daily) and -99.5% in data set [2] (100 mg/kg i.p. twice daily). Also, the “% CHANGE NOREPINEPHRINE Brain” value is 0% in data set [3] (setting [8]) and -69% in data set [3] (100 mg/kg i.p. twice daily). Besides, the “% CHANGE NOREPINEPHRINE Heart” value in data set [3] (setting [9]) is on record as -7%; in data set [3] (100 mg/kg i.p. twice daily), -75%. Further, the “% CHANGE DOPAMINE Brain” value in data set [3] (setting [10]) is -9%; in data set [3] (setting [11]) it was -35%. The dead in data set [4] is 2/5.

Consider `NC(CF)(Cc1ccc(O)cc1)C(=O)O` (stereo not drawn) [Example 4-OH-phenyl, 2-Amino-2-fluoromethyl-3-(4-hydroxyphenyl)propionic acid], for which, in data set [1], the “TIME OF 90% INACTIVATION” value is reported as over 300 min and the RATING is 0-+. For the same molecule, the “% CHANGE AADC Brain” value in data set [5] is -88%. In data set [6], the “% CHANGE DOPAMINE Brain” value is given as -88%, the “% CHANGE NOREPINEPHRINE Brain” value is -54% and the “% CHANGE NOREPINEPHRINE Heart” value is listed as -45%. Further, the “selectivity (brain catecholamines lowered, not heart, not brain 5-HT)” value in data set [7] is reported as “not found”.
